Data as given in patent US20240374567A1, “Combination Treatments for Cancer Patients and Methods for Identifying Same” (Scandion Oncology A/S, priority 2021, published 2024).

Tested on: UGT1A1
Test: Clinical study of SCO-101 with FOLFIRI: serum bilirubin and bilirubin index after SCO-101
Type: in vivo, human
Experimental: The term “bilirubin index” as used herein or “bilirubin index score” which are used interchangeably, refer to a patient's rate of bilirubin normalization subsequent to administration of an UGT1A1 inhibitor to the patient. Herein, the bilirubin index is determined subsequent to administration of an UGT1A1 inhibitor to the patient for a number of consecutive days, such as 1, 2, 3, 4, 5, or 6, preferably 6 days. Based on 6 consecutive days of administration with an UGT1A1 inhibitor, the bilirubin index is determined as the bilirubin serum or plasma concentration (unconjugated or total bilirubin) on day 12 divided with the bilirubin serum or plasma concentration on day 7 and thus is an indicator of how much the patients' UGT1A1 activity has normalized following cessation of SCO-101 treatment and can be determined using bilirubin as a surrogate marker.
Bilirubin: Blood sampling for analysis of bilirubin (total, unconjugated and conjugated) were withdrawn at Screening (up to 4 weeks prior start of treatment), day 5, day 7 and day 12 in the first treatment cycle.
Likely, the increase in unconjugated bilirubin is mediated through inhibition of the enzyme UDP-glucuronosyltransferase 1 family, polypeptide A1 (UGT1A1). UGT1A1 is an enzyme responsible for conjugation of poorly soluble endo- and xenobiotics making them more soluble and possible to excrete. UGT1A1 is the primary enzyme responsible for conjugation of bilirubin and metabolism of Irinotecan's active metabolite SN-38. The bilirubin index score is the bilirubin serum concentration (unconjugated or total bilirubin) on day 12 divided with the bilirubin serum concentration on day 7 and thus is an indicator of how much the patients' UGT1A1 activity has normalized following cessation of SCO-101 treatment, and can be determined using bilirubin as a surrogate marker. In FIG. 2, an overview of the bilirubin index for all patients is included. The mean bilirubin index score for the six RAS wild type patients is approximately 0.15 (lowest 0.04, highest 0.28) whereas the mean score for the six RAS mutated patients is 0.59 (lowest 0.25, highest 0.76). Thus, there is a strong indication that the bilirubin index can predict a patient's tolerability to treatment.

O=C(Nc1cc(C(F)(F)F)cc(C(F)(F)F)c1)Nc1ccc(Br)cc1-c1nnn[nH]1 [SCO-101]
reversibility of bilirubin increase / UGT1A1 inhibition (after discontinuation of SCO-101 treatment): completely reversible
bilirubin index (bilirubin serum concentration on day 12 divided with day 7) (patients with RAS mutation, cohort 1 (150 mg SCO-101), cycle 1): above 0.4
effect on unconjugated bilirubin serum concentration (patients, SCO-101 days 1 to 6): specific and dose dependent increase
highest bilirubin index score (six RAS mutated patients): 0.76
lowest bilirubin index score (six RAS mutated patients): 0.25
mean bilirubin index score (six RAS mutated patients): 0.59
highest bilirubin index score (six RAS wild type patients): 0.28
lowest bilirubin index score (six RAS wild type patients): 0.04
mean bilirubin index score (six RAS wild type patients): approximately 0.15
